Measured values as given in patent US7157430B2, “(Substituted)acyl dipeptidyl inhibitors of the ICE/CED-3 family of cysteine proteases” (Idun Pharmaceuticals, Inc., priority 1998, dated 2007).

Experiments:
Assay type in all cases: biochemical
Conditions in all cases: continuous assay 60 min, reaction initiated by adding enzyme
mICE = target: T1, mICE (Mus musculus, UniProt P29452); experiment: Dissociation constant Ki and irreversible rate constant k3 for irreversible inhibitors, ICE
T1 sequence (P29452 123-296 limits assumed): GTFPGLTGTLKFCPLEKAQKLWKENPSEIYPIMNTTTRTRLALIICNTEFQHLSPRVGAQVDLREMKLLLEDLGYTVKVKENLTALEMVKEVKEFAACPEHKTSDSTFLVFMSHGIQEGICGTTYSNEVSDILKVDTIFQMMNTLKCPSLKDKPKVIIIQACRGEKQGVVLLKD
T1 sequence (P29452 315-402 limits assumed): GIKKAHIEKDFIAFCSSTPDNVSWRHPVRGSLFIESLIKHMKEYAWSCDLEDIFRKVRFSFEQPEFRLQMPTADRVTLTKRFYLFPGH
Text: (§1) For the irreversible inhibition of a ICE/ced-3 Family Protease enzyme with a competitive irreversible inhibitor; using the model represented by the following formulas: […]
(§2) The product formation at time t may be expressed as:
(§3) [formula] where E, I, EI and E-I denote the active enzyme, inhibitor, non-covalent enzyme-inhibitor complex and covalent enzyme-inhibitor adduct, respectively. The Ki value is the overall dissociation constant of the reversible binding steps, and k3 is the irreversible rate constant. The [S] and Ks values are the substate concentration and dissociation constant of the substrate bound to the enzyme, respectively. [E]^T is the total enzyme concentration.
(§4) The above equations were used to determine the Ki and k3 values of a given inhibitor bound to a ICE/ced-3 family protease. Thus, a continuous assay was run for sixty minutes at various concentrations of the inhibitor and the substrate. The assay was formulated essentially the same as described above for generating the data in Table 1, except that the reaction was initiated by adding the enzyme to the substrate-inhibitor mixture. The Ki and k3 values were obtained by simulating the product AMC formation as a function of time according to Equation 1.
(§5) The reference compound for this assay was Cbz-ValAlaAsp-CH2F and the values are denoted in Table 2 as “Reference”. The Ki values in Table 2 are in micromolar (μM). The k3/Ki values are in moles^−1 seconds^−1 (M^−1s^−1).

CPP32 = target: T2, CPP32 (Homo sapiens, UniProt P42574); experiment: Dissociation constant Ki and irreversible rate constant k3 for irreversible inhibitors, CPP32
T2 sequence (P42574 29-175 limits assumed): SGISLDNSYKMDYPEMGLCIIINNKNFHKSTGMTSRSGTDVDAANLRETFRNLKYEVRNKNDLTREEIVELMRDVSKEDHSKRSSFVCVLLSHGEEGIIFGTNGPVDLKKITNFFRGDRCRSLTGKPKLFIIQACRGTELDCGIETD
T2 sequence (P42574 176-277 limits assumed): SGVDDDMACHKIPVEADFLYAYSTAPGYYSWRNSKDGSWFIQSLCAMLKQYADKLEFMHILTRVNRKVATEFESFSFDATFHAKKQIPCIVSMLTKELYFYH
Text: as §1, §2, §3, §4, §5

MCH-2 = target: T3, MCH-2 (Homo sapiens, UniProt P55212); experiment: Dissociation constant Ki and irreversible rate constant k3 for irreversible inhibitors, Mch2
T3 sequence (P55212 24-179 limits assumed): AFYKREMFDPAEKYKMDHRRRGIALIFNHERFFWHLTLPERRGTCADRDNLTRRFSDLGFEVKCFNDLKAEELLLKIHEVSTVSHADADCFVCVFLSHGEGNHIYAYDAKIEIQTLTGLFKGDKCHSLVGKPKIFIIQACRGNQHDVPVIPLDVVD
T3 sequence (P55212 194-293 limits assumed): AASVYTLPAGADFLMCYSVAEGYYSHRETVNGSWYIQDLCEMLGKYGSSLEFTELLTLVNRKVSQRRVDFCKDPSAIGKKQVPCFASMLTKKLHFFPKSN
Text: as §1, §2, §3, §4, §5

MCH-5 = MCH-5 (Homo sapiens, UniProt Q14790); experiment: Dissociation constant Ki and irreversible rate constant k3 for irreversible inhibitors, Mch5
Text: as §1, §2, §3, §4, §5

Sequence of MCH-5 (Q14790 217-374 limits assumed, species assumed): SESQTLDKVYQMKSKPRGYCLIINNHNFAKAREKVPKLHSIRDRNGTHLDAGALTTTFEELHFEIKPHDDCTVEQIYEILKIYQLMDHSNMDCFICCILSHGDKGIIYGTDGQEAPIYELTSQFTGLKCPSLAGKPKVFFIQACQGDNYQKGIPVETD
Sequence of MCH-5 (Q14790 385-479 limits assumed, species assumed): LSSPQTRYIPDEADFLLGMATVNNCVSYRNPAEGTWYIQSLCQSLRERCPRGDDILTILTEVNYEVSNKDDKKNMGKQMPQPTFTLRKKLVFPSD

| SMILES | Ki (mICE) [µM] | mICE k3/Ki (mICE) | CPP32 k3/Ki (CPP32) | Ki (CPP32) [µM] | Ki (MCH-2) [µM] | MCH-2 k3/Ki (MCH-2) | Ki (MCH-5) [µM] | MCH-5 k3/Ki (MCH-5) |
| --- | --- | --- | --- | --- | --- | --- | --- | --- |
| CC(C)[C@H](NC(=O)COc1ccc2ccccc2c1)C(=O)NC(CC(=O)O)C(=O)CF (mixture of isomers) [Example 54] | 1.09 | 8,280 M^−1s^−1 | 59,300 M^−1s^−1 | 0.209 | 0.057 | 64,400 M^−1s^−1 | 0.059 | 32,300 M^−1s^−1 |
| CC(C)[C@H](NC(=O)CCOc1cccc2ccccc12)C(=O)NC(CC(=O)O)C(=O)CF (mixture of isomers) [Example 55] | 0.246 | 33,200 M^−1s^−1 | 41,300 M^−1s^−1 | 0.186 | 0.039 | 59,400 M^−1s^−1 | 0.056 | 20,400 M^−1s^−1 |
| CC(C)C[C@H](NC(=O)COc1ccccc1-c1ccccc1)C(=O)NC(CC(=O)O)C(=O)CF (mixture of isomers) [Example 57, (3RS)-3-[N-((2-Phenylphenoxy)Acetyl)Leucinyl]Amino-5-Fluoro-4-Oxopentanoic Acid] | 0.12 | 37,400 M^−1s^−1 | 177,000 M^−1s^−1 | 0.042 | 0.03 | 91,000 M^−1s^−1 | 0.066 | 15,900 M^−1s^−1 |
| CC(C)[C@H](NC(=O)COc1cccc2ccccc12)C(=O)NC(CC(=O)O)C(=O)CF (mixture of isomers) [Example 53, (3RS)-3-[N-((1-Naphthyloxy)Acetyl)Valinyl]Amino-5-Fluoro-4-Oxopentanoic Acid] | 0.053 | 129,000 M^−1s^−1 | 207,000 M^−1s^−1 | 0.079 | 0.038 | 36,800 M^−1s^−1 | 0.04 | 71,700 M^−1s^−1 |
| CC(C)C(NC(=O)COc1ccccc1-c1ccccc1)C(=O)NC(CC(=O)O)C(=O)CF (stereo not shown) [Example 56] | 0.324 | 15,400 M^−1s^−1 | 105,000 M^−1s^−1 | 0.138 | 0.053 | 50,000 M^−1s^−1 | 0.085 | 12,800 M^−1s^−1 |
| O=C(O)CC(NC(=O)[C@@H]1CCCCN1C(=O)COc1cccc2ccccc12)C(=O)CF (stereo partly shown) [Example 59] | 0.184 | 46,300 M^−1s^−1 | 14,400 M^−1s^−1 | 0.942 | 0.071 | 10,100 M^−1s^−1 | 0.09 | 17,600 M^−1s^−1 |
| O=C(O)CC(NC(=O)[C@@H]1Cc2ccccc2N1C(=O)COc1cccc2ccccc12)C(=O)CF (stereo partly drawn) [Example 61, (2′S,3RS)-3-[N-((1-Naphthyloxy)Acetyl)Indoline-2′-Carbonyl]Amino-5-Fluoro-4-Oxopentanoic Acid] | 0.148 | 93,200 M^−1s^−1 | 28,300 M^−1s^−1 | 0.36 |  |  | 0.217 | 10,100 M^−1s^−1 |
| CC(C)[C@H](NC(=O)COc1cccc2ccccc12)C(=O)N[C@@H](CC(=O)O)C(=O)COC(=O)c1c(Cl)cccc1Cl [Example 63] | 0.079 | 52,100 M^−1s^−1 | 725,000 M^−1s^−1 | 0.012 | 0.012 | 56,900 M^−1s^−1 | 0.012 | 17,000 M^−1s^−1 |
| CC(C)[C@H](NC(=O)COc1cccc2ccccc12)C(=O)N[C@@H](CC(=O)O)C(=O)COc1ccccc1 [Example 64] | 0.262 | 3,630 M^−1s^−1 | 19,200 M^−1s^−1 | 0.062 | 0.153 | 2,400 M^−1s^−1 | 0.235 | 4,260 M^−1s^−1 |
| CC(C)[C@H](NC(=O)COc1cccc2ccccc12)C(=O)N[C@@H](CC(=O)O)C(=O)COc1cccc(F)c1F [Example 68] | 0.355 | 14,800 M^−1s^−1 | 28,800 M^−1s^−1 | 0.11 | 0.383 | 1,610 M^−1s^−1 | 0.821 | 200 M⁻¹ s⁻¹ |
| CC(C)[C@H](NC(=O)COc1cccc2ccccc12)C(=O)N[C@@H](CC(=O)O)C(=O)COc1ccc(F)cc1F [Example 69] | 0.615 | 8,400 M^−1s^−1 | 21,700 M^−1s^−1 | 0.092 | 0.951 | 0 M⁻¹ s⁻¹ | 1.3 | 630 M⁻¹ s⁻¹ |
| CC(C)[C@H](NC(=O)COc1cccc2ccccc12)C(=O)N[C@@H](CC(=O)O)C(=O)COc1c(F)cccc1F [Example 71] | 0.193 | 53,900 M^−1s^−1 | 200,000 M^−1s^−1 | 0.039 | 0.038 | 9,980 M^−1s^−1 | 0.12 | 9,100 M^−1s^−1 |

Continued, values first:

| Ki (mICE) [µM] | mICE k3/Ki (mICE) | CPP32 k3/Ki (CPP32) | Ki (CPP32) [µM] | Ki (MCH-2) [µM] | MCH-2 k3/Ki (MCH-2) | Ki (MCH-5) [µM] | MCH-5 k3/Ki (MCH-5) | SMILES |
| --- | --- | --- | --- | --- | --- | --- | --- | --- |
| 0.373 | 33,500 M^−1s^−1 | 8,440 M^−1s^−1 | 0.758 |  |  | 0.467 | 5,780 M^−1s^−1 | O=C(O)CC(NC(=O)[C@@H]1Cc2ccccc2CN1C(=O)COc1cccc2ccccc12)C(=O)CF (mixture of isomers) [Example 60] |
| 0.253 | 45,400 M^−1s^−1 | 169,000 M^−1s^−1 | 0.052 | 0.042 | 44,000 M^−1s^−1 | 0.048 | 18,200 M^−1s^−1 | CC(C)[C@H](NC(=O)COc1cccc2ccccc12)C(=O)N[C@@H](CC(=O)O)C(=O)COn1nnc2ccccc2c1=O [Example 62, (3S)-3-[N-((1-Naphthyloxy)Acetyl)Valinyl]Amino-5-(1′,2′,3′-Benzotriazin-4′(3H)-on-3′-yloxy)-4-Oxopentanoic Acid] |
| 0.305 | 6,020 M^−1s^−1 | 26,800 M^−1s^−1 | 0.102 | 0.336 | 0 M⁻¹ s⁻¹ | 0.354 | 230 M⁻¹ s⁻¹ | CC(C)[C@H](NC(=O)COc1cccc2ccccc12)C(=O)N[C@@H](CC(=O)O)C(=O)COc1ccccc1F [Example 65] |
| 0.442 | 2,700 M^−1s^−1 | 17,800 M^−1s^−1 | 0.121 | 0.344 | 48 M⁻¹ s⁻¹ | 0.406 | 460 M⁻¹ s⁻¹ | CC(C)[C@H](NC(=O)COc1cccc2ccccc12)C(=O)N[C@@H](CC(=O)O)C(=O)COc1cccc(F)c1 [Example 66] |
| 0.218 | 9,120 M^−1s^−1 | 8,560 M^−1s^−1 | 0.033 | 0.203 | 0 M⁻¹ s⁻¹ | 0.255 | 700 M⁻¹ s⁻¹ | CC(C)[C@H](NC(=O)COc1cccc2ccccc12)C(=O)N[C@@H](CC(=O)O)C(=O)COc1ccc(F)cc1 [Example 67] |
| 0.399 | 12,100 M^−1s^−1 | 49,000 M^−1s^−1 | 0.104 | 0.357 | 1,330 M^−1s^−1 | 0.76 | 480 M⁻¹ s⁻¹ | CC(C)[C@H](NC(=O)COc1cccc2ccccc12)C(=O)N[C@@H](CC(=O)O)C(=O)COc1cc(F)ccc1F [Example 70] |
| 0.718 | 1,620 M^−1s^−1 | 6,460 M^−1s^−1 | 0.09 | 1.16 | 90 M⁻¹ s⁻¹ | 1.04 | 120 M⁻¹ s⁻¹ | CC(C)[C@H](NC(=O)COc1cccc2ccccc12)C(=O)N[C@@H](CC(=O)O)C(=O)COc1ccc(F)c(F)c1 [Example 72] |
